Experimental data as given in patent publication US20260224536A1, “ARYL HETEROCYCLIC KV1.3 INHIBITOR, PREPARATION METHOD THEREFOR, AND USE THEREOF” (SHANGHAI SHENSHI WISE TECHNOLOGY CO., LTD., priority 2022, published 2026).

Assays:
Type in all cases: cell-based
Kv1.3 potassium channel = Kv1.3 potassium channel (Homo sapiens, UniProt P22001); assay: Whole-cell patch-clamp assay for inhibitory activity against Kv1.3 (peak current); details: HEK293 cells stably expressing Kv1.3, patch-clamp
Outline: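 Whole-cell currents evoked by a step from −80 mV holding to +40 mV for 500 ms at room temperature. Concentrations perfused cumulatively, low to high, each for 5 min or until steady state. Peak current normalised to each cell's compound-free control; IC50 from nonlinear fit, ≥3 cells per concentration.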

Kv1.1 potassium channel = biological target: T1, Kv1.1 potassium channel (Homo sapiens, UniProt Q09470); assay: Whole-cell patch-clamp assay for inhibitory activity against Kv1.1 (steady state current); details: HEK293 cells stably expressing Kv1.1, patch-clamp, read-out: IC50 for inhibition of Kv1.1
T1 construct: expressed in transfected cells
Procedure: (§1) HEK293 cells stably expressing Kv1.X (Kv1.1, Kv1.2, Kv1.3, Kv1.4, Kv1.5) potassium channels were cultured in DMEM medium containing 10% fetal bovine serum and 800 μg/mL G418 (geneticin) at a culture temperature of 37° C. and a carbon dioxide concentration of 5%.
(§2) The extracellular fluid contained […], 3.5 mM KCl, 1 mM MgCl2·6H2O, 2 mM CaCl2·2H2O, 10 mM D-glucose, 10 mM HEPES, 1.25 mM NaH2PO4·2H2O, and the pH was adjusted to 7.4 with NaOH. The intracellular fluid contained 20 mM KCl, 115 mM K-Aspartic, 1 mM MgCl2·6H2O, 5 mM EGTA, 10 mM HEPES, 2 mM Na2-ATP, and the pH was adjusted to 7.2 with KOH.
(§3) The voltage stimulation protocol for recording whole-cell Kv1.X potassium currents via patch-clamp was as follows. After formation of a whole-cell seal, the cell membrane voltage was clamped at −80 mV, and then stepped to +40 mV for 500 ms. […] Then, a slow capacitance compensation was given, and the membrane capacitance and series resistance were recorded. […]
(§4) Once the whole-cell recorded Kv1.X current stabilized, drug administration was started. […] For each cell, the current detected in the compound-free extracellular liquid was used as its own control group. […]
(§5) and then the inhibition rate corresponding to each drug concentration was calculated
(§6) Subsequently, the mean, standard deviation (SD), and standard error (SE) were calculated for the inhibition rate corresponding to each concentration. […]

Kv1.2 potassium channel = biological target: T2, Kv1.2 potassium channel (Homo sapiens, UniProt P16389); assay: Whole-cell patch-clamp assay for inhibitory activity against Kv1.2 (steady state current); details: HEK293 cells stably expressing Kv1.2, patch-clamp, read-out: IC50 for inhibition of Kv1.2
T2 construct: expressed in transfected cells
Procedure: as §1, §2, §3, §4, §5, §6

Kv1.4 potassium channel = Kv1.4 potassium channel (Homo sapiens, UniProt P22459); assay: Whole-cell patch-clamp assay for inhibitory activity against Kv1.4 (peak current); details: HEK293 cells stably expressing Kv1.4, patch-clamp, read-out: IC50 for inhibition of Kv1.4
Procedure: as §1, §2, §3, §4, §5, §6

Kv1.5 potassium channel = Kv1.5 potassium channel (Homo sapiens, UniProt P22460); assay: Whole-cell patch-clamp assay for inhibitory activity against Kv1.5 (steady state current); details: HEK293 cells stably expressing Kv1.5, patch-clamp, read-out: IC50 for inhibition of Kv1.5
Procedure: as §1, §2, §3, §4, §5, §6

hERG potassium channel = biological target: T3, hERG potassium channel (Homo sapiens, UniProt Q12809); assay: Whole-cell voltage clamp assay for inhibitory activity against hERG; details: CHO cells stably expressing hERG, peak tail current at -50 mV, read-out: IC50 for inhibition of hERG
T3 construct: expressed in transfected cells
Procedure: CHO cells stably expressing hERG were cultured in 35 mm diameter cell culture dishes at 37° C. in a 5% CO2 incubator. The cells were passaged at a ratio of 1:5 every 48 h. The culture medium recipe was as follows: 90% F12 (Invitrogen), 10% fetal bovine serum (Gibco), 100 µg/mL G418 (Invitrogen), and 100 µg/mL Hygromycin B (Invitrogen). On the day of the test, the cell culture fluid was aspirated, and the cells were rinsed once with the extracellular fluid. […] The digestion solution was then aspirated, and the cells were resuspended with the extracellular fluid and transferred to an experimental dish for electrophysiological recording for later use. hERG potassium channel currents were recorded at room temperature by the whole-cell voltage clamp technique in the CHO cells stably expressing hERG potassium channels. Glass microelectrodes were formed by pulling a glass electrode blank (BF150-86-10, Sutter) using a puller. The tip resistance after perfusion with the electrode internal solution was about 2-5 MΩ. […] The clamping voltage and data recording were controlled and recorded by a computer with the pClamp software, with a sampling frequency of 10 kHz and a filtering frequency of 2 kHz. […] This voltage stimulation was applied every 5 s, and after the hERG potassium currents were determined to be stable (for 1 min), the drug administration process was started. […]

Chain of Kv1.3 potassium channel (P22001 whole entry, the tested form may be a part): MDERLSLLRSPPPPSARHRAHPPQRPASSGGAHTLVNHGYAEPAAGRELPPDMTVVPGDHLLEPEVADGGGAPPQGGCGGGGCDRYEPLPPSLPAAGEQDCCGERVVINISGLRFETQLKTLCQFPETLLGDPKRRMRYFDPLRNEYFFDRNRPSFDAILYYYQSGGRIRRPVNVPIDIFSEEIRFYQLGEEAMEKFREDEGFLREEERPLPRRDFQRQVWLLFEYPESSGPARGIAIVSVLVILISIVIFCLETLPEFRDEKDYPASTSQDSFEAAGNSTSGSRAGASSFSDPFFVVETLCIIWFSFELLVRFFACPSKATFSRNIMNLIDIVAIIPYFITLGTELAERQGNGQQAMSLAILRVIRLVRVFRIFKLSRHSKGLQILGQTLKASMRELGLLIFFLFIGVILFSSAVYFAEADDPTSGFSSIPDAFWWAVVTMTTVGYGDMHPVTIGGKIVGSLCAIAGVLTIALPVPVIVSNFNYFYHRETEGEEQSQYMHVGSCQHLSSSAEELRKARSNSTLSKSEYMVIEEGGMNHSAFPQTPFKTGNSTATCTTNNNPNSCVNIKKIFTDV
T2 sequence (P16389 whole entry): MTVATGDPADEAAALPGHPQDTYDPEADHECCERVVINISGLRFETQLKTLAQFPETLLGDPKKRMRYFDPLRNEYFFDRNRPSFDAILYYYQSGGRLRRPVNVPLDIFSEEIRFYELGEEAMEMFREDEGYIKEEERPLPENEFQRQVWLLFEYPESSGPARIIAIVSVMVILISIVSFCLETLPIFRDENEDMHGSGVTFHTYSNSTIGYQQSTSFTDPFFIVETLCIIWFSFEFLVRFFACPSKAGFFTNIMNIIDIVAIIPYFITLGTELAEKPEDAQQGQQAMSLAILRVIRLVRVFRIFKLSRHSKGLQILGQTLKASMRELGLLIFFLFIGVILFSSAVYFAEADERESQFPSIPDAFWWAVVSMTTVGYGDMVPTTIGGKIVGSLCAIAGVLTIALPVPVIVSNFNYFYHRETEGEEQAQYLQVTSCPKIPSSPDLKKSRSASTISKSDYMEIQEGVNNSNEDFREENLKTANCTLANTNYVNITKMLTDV
T3 sequence (Q12809 whole entry): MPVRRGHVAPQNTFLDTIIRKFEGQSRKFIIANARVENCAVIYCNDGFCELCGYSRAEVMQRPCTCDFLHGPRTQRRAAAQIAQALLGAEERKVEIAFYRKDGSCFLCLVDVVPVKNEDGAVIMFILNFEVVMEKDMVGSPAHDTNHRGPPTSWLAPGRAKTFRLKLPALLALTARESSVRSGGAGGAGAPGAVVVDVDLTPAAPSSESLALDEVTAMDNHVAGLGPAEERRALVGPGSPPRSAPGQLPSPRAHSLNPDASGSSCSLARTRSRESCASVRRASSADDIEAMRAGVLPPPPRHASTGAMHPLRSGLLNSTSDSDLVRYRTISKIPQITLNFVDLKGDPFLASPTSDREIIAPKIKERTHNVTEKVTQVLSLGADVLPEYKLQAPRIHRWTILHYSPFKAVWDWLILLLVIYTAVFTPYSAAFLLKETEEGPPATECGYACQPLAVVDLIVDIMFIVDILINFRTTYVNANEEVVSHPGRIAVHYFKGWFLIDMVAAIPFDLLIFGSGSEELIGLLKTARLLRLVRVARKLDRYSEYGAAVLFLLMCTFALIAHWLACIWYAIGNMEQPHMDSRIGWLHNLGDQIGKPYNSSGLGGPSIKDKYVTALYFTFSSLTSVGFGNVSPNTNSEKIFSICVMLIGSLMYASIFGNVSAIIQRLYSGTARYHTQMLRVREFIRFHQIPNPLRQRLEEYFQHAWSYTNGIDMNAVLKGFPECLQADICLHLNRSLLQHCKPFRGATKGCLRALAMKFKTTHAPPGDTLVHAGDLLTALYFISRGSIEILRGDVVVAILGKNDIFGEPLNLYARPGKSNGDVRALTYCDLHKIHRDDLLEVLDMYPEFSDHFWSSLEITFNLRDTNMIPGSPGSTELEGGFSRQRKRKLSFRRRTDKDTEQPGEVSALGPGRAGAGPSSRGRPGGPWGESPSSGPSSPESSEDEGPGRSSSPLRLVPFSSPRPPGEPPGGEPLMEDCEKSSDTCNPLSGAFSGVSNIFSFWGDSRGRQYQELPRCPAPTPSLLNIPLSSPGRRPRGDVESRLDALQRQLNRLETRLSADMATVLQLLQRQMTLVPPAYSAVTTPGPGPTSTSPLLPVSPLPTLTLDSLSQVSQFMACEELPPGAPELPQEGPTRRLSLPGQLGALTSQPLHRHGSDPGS
Chain of Kv1.4 potassium channel (P22459 whole entry): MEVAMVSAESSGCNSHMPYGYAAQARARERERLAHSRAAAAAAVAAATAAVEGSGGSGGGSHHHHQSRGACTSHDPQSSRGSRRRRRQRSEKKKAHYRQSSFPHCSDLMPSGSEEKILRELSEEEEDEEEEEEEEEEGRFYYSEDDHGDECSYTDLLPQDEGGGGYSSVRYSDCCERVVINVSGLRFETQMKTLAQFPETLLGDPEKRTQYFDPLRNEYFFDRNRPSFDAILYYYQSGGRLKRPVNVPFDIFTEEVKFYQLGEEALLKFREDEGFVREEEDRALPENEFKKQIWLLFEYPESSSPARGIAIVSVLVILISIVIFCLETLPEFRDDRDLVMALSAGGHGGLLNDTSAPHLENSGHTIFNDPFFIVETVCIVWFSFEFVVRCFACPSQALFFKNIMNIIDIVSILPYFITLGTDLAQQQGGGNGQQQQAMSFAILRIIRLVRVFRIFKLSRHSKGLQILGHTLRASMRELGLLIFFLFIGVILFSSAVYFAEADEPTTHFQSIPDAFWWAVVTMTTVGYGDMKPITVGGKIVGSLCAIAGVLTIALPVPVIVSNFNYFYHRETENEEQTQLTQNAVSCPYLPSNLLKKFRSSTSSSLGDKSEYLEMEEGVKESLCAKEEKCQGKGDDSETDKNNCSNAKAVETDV
T1 sequence (Q09470 whole entry): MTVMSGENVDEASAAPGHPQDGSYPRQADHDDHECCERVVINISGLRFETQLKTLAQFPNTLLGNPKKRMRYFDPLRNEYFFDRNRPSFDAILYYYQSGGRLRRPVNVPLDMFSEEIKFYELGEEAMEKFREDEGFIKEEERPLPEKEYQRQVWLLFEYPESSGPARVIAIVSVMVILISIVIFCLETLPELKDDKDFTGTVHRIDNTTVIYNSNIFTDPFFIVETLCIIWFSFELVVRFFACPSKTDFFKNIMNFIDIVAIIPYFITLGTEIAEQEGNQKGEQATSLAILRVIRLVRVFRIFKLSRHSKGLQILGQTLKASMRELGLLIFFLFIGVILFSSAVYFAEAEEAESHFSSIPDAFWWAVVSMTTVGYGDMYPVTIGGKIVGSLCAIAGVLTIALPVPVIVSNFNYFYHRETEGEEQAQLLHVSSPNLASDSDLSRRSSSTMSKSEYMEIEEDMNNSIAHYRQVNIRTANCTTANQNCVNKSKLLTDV
Chain of Kv1.5 potassium channel (P22460 whole entry): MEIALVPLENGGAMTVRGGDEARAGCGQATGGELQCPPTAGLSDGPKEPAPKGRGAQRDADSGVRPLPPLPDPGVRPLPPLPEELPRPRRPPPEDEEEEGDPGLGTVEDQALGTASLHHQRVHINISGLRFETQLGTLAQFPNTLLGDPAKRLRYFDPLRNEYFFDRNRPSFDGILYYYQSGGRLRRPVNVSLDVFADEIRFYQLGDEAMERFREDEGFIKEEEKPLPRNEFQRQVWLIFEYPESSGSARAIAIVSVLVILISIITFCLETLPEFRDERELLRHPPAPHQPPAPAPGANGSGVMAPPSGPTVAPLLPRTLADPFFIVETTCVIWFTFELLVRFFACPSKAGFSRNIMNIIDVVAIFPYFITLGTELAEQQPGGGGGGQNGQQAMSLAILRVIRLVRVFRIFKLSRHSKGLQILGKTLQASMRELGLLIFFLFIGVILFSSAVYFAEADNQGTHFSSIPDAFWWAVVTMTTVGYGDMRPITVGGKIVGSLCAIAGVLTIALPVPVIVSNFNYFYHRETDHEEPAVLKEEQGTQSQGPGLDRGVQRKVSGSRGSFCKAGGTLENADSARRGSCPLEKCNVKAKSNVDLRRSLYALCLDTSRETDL

Row | Compound | IC50 (Kv1.3 potassium channel) | IC50 (Kv1.1 potassium channel) | IC50 (Kv1.2 potassium channel) | IC50 (Kv1.4 potassium channel) | IC50 (Kv1.5 potassium channel) | IC50 (hERG potassium channel)
1 | OCc1nnc2n1C[C@H](c1c(O)ccc(Cl)c1Cl)C2 [Example 2, (S)-3,4-dichloro-2-(3-(hydroxymethyl)-6,7-dihydro-5H-pyrrolo[2,1-c][1,2,4]triazol-6-yl)phenol] | 28.1 nM | > 100 µM | > 100 µM | > 30 µM | > 100 µM | > 30 µM
2 | Oc1ccc(Cl)c(Cl)c1[C@@H]1Cc2nnc([C@@H]3CCOC3)n2C1 [Example 54, 3,4-Dichloro-2-((S)-3-((S)-tetrahydrofuran-3-yl)-6,7-dihydro-5H-pyrrolo[2,1-c][1,2,4]triazol-6-yl)phenol] | 7.7 nM | > 100 µM | > 100 µM | > 30 µM | > 100 µM | > 30 µM
3 | Cn1ccc(-c2nnc3n2C[C@H](c2c(O)ccc(Cl)c2Cl)C3)cc1=O [Example 39, (S)-4-(6-(2,3-Dichloro-6-hydroxyphenyl)-6,7-dihydro-5H-pyrrolo[2,1-c][1,2,4]triazol-3-yl)-1-methylpyidin-2(1H)-one] | 52.1 nM |  |  |  |  | 
4 | CC(C)c1nnc2n1CC(c1c(O)ccc(Cl)c1Cl)C2 (stereo not drawn) [Example 8, 3,4-Dichloro-2-(3-isopropyl-6,7-dihydro-5H-pyrrolo[2,1-c][1,2,4]triazol-6-yl)phenol] | 20.6 nM |  |  |  |  | 
5 | Nc1ccc(-c2nnc3n2C[C@H](c2c(O)ccc(Cl)c2Cl)C3)cn1 [Example 42, (S)-2-(3-(6-Aminopyridin-3-yl)-6,7-dihydro-5H-pyrrolo[2,1-c][1,2,4]triazol-6-yl)-3,4-dichlorophenol] | 13 nM |  |  |  |  | 
6 | O=c1n([C@@H]2CCOC2)nc2n1C[C@H](c1c(O)ccc(Cl)c1Cl)C2 [Example 110, (S)-6-(2,3-dichloro-6-hydroxyphenyl)-2-((R)-tetrahydrofuran-3-yl)-2,5,6,7-tetrahydro-3H-pyrrolo[2,1-c][1,2,4]triazol-3-one] | 20.1 nM |  |  |  |  | 
7 | CC(=O)N1CC[C@@H](c2nnc3n2C[C@H](c2c(O)ccc(Cl)c2Cl)C3)C1 [Example 81, 1-((R)-3-((S)-6-(2,3-Dichloro-6-hydroxyphenyl)-6,7-dihydro-5H-pyrrolo[2,1-c][1,2,4]triazol-3-yl)pyrrolidin-1-yl)ethan-1-one] | 11.3 nM |  |  |  |  | 
8 | Oc1ccc(Cl)c(Cl)c1C1Cc2nnc(C(F)F)n2C1 (stereo not drawn) [Example 25, 3,4-Dichloro-2-(3-(difluoromethyl)-6,7-dihydro-5H-pyrrolo[2,1-c][1,2,4]triazol-6-yl)phenol] | 11.1 nM |  |  |  |  | 
